{
  "source": "patent US9234025B2",
  "about": "“Extracellular allosteric inhibitor binding domain from a tyrosine kinase receptor” (SANOFI, priority 2009, dated 2016)",
  "key": {"[1]": {"target": "T1, FGFR1-ECD (FGFR1^∂123/Fc) (Homo sapiens, UniProt P11362)", "T1 construct": "FGFR1-ECD, consisting of the three Ig-like domains D1-3, coupled to a Fc-fragment (FGFR1^∂123/Fc)", "T1 sequence (P11362 22-376 limits assumed)": "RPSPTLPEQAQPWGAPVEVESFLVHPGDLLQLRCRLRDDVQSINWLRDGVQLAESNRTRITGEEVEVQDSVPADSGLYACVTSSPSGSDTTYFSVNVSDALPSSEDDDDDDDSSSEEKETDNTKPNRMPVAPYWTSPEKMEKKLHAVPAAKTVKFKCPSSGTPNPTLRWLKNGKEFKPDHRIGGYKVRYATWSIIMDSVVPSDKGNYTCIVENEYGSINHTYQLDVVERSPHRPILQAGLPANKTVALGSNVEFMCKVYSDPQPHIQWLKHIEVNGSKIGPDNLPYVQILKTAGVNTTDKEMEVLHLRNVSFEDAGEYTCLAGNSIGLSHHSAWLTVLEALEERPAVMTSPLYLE", "experiment": "scintillation proximity binding assay (SPA), 125I-FGF2 to FGFR1-ECD/Fc", "text": "The objective of this study was to develop low molecular weight chemical compounds that bind to the FGFR extracellular domain (ECD) and inhibit FGFR signaling. Given that it is challenging to envisage how a small compound could interact with a much larger polypeptide (i.e. FGF) via simple steric hindrance for the orthosteric site, multiple ligand binding assay formats were utilized to determine whether any identified compounds were acting orthosterically of via an allosteric mechanism. We initially developed a high-throughput scintillation proximity binding assay (SPA) to identify compounds that inhibit the binding of ^125I-FGF2 to FGFR1-ECD, consisting of the three Ig-like domains D1-3, coupled to a Fc-fragment (FGFR1^∂123/Fc)."}, "FGFR2^∂123": {"target": "T2, FGFR2^∂123 (Homo sapiens, UniProt P21802)", "T2 construct": "we purified the entire extracellular domain of FGFR2 without Fc-tag (FGFR2^∂123); made in house", "T2 sequence (P21802 22-377 limits assumed)": "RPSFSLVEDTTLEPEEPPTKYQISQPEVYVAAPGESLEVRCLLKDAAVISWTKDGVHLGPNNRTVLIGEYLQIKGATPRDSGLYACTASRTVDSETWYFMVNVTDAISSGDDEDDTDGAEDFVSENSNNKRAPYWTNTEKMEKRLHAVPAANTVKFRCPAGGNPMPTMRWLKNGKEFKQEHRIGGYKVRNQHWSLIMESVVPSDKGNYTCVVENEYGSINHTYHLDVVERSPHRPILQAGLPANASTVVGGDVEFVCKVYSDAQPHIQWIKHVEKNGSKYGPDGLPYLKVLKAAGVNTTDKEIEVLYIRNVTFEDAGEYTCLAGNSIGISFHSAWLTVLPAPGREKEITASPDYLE", "experiment": "anisotropy measurement, FGF1-lumio binding to FGFR2 ECD without Fc-tag", "settings": ">1,000 fold molar excess of SSR; FGF1-lumio 1 μM", "procedure": "To assess whether SSR inhibits the binding of FGF1 to its binding pocket, we purified the entire extracellular domain of FGFR2 without Fc-tag (FGFR2^∂123) and measured the tumbling speed (as a parameter of anisotropy) of a fluorescent lumio-tagged FGF1 (FGF1-lumio; constant concentration of 1 μM) in the presence of varying concentrations of FGFR2^∂123 without (blue) or with (red) SSR (1 mM). When FGFR2^∂123 was added to FGF1-lumio, the tumbling speed of the ligand/receptor complex was slower than of FGF-lumio alone, because of its larger size.\nOne hallmark of allosteric interactions is the phenomenon of ‘probe-dependence’ i.e., variations in the magnitude and direction of an allosteric interaction depending on the nature of the orthosteric ligand-receptor complex with which the modulator is interacting (May et al., 2007). To determine whether the effects of SSR on ^125I-FGF2 binding in the SPA were dependent on the configuration of the engineered FGFR/Fc fusion protein plated on an artificial substrate, we next studied whether SSR inhibited the binding of a fluorescent lumio-tagged FGF1 (FGF1-lumio) to a purified ECD of FGFR2 without the Fc-tag (FGFR2^∂123), by measuring the tumbling speed as a parameter of anisotropy. When FGFR2^∂123 was added to FGF1-lumio, the tumbling speed of the ligand/receptor complex was slower than of FGF-lumio alone because of its larger size. […]"}, "HUVEC": {"system": "HUVEC", "experiment": "HUVEC proliferation", "assay_type": "cell-based, human", "settings": "FGFR1β3c-driven; ATP content after 3 days", "procedure": "Confluent HUVEC cells are harvested and 5 10^4 cells in 100 μl RPMI 1640 (Invitrogen, 32404-014) with 0.5% FCS (Hyclone, SH30070.03), 2 mM glutamine, MEM non-essential amino-acid 1× (Gibco, 11140-035), MEM sodium pyruvate 1× (Gibco, 11360-039) are seeded per well in 96-well collagen 1-coated plates (Beckton Dickinson, 354650) overnight. Then, medium is removed and replace by 50 μl of medium that contains 2×FGF2 (R&D, 234-FSE-025), FGF4 (R&D, 235-F4-025) or FGF-19 (in house produced) and 50 μl of 2×SSR (200 or 600 nM). Cells were incubated in CO2 chamber at 37° C. for 3 days and proliferation is evaluated by quantifying ATP content with 100 μl of “Cell Titer Glo Luminescent cell viability” kit (Promega, G7571)."}, "PANC02 cells": {"system": "PANC02 cells", "experiment": "PANC02 migration", "assay_type": "cell-based", "settings": "100 nM SSR; 100 ng/ml FGF7 with or without VEGF; FGFR2-IIIb", "procedure": "Cell proliferation was analysed on exponentially growing cells that were starved for 16 hours in 100 μl RPMI 1640 (Invitrogen, 32404-014) with 0.2% FBS (Hyclone, SH30070.03), 2 mM glutamine, MEM non-essential amino-acid 1× (Gibco, 11140-035), MEM sodium pyruvate 1× (Gibco, 11360-039) and seeded at 4,000 cells/well in 96-well microplates. After exposure to mitogens and/or SSR for 72 hours, cell proliferation was assessed with the use of the CellTiter 96 AQueous One Solution Cell Proliferation Assay (Promega, Madison, Wis., USA) according to manufacturer's instructions. Cell migration was assessed by a modified Boyden chamber assay, by using 24-well inserts containing 8 μm pore size transwell permeable supports with a polycarbonate membrane (Costar, Corning Inc.). Exponentially growing cells were starved in 0.2% FBS containing medium for 16 hours and resuspended at 5×10^5 cells/ml in the same low serum medium. 100 μl of the cell suspension were seeded in the upper chamber, while chemoattractants and/or SSR were placed in the lower chamber. 10% FBS containing medium was used a positive control. After 6 hours incubation at 37° C., cells on the upper side of the membrane were scraped using a cotton swab, while migrated cells on the lower surface were fixed with 4% formaldehyde and nuclei stained with DAPI for quantification."}, "[2]": {"system": "AKT phosphorylation in HUVEC cells", "experiment": "western blot analysis of AKT phosphorylation in HUVEC", "assay_type": "cell-based, human", "settings": "phospho-AKT Ser473", "procedure": "HUVE Cells (Promocell, C-12200) are seeded in 35 mm collagen I coated disk (BD Biocoat, 354456) at 0.5.10^6 cells in 2 ml of EBM medium (Clonetics, CC-3121) containing 2% FBS (Clonetics, CC-4101), 10 μg/ml hEGF (Clonetics, CC-4017) from the EGM singlequots kit (Clonetics, CC-4133), 1250 ng/ml heparin (Sigma, H3149) and 375 ng/ml ECGS (BD Biosciences, 356006). At 90% confluency, cells are starved overernight in 1.8 ml of RPMI 1640 (Invitrogen, 32404-014), 0.5% FCS, 2 mM glutamine, 1 mM non-essential amino acids (Invitrogen, 11140-050), sodium pyruvate (Invitrogen, 11360-070). The day after, cells are stimulated 10 min by 200 μl of equilibrated starvation medium that contains 10×FGF-4 (30 ng/ml; R&D, 235-F4-025) with or without 10×SSR (3 μM). Next, cells are rinsed with cold PBS and cell lysed with 75 μl RIPA that contains 2.5 mM orthovanadate and protease inhibitors cocktail (Sigma, P8340). Cell lysates were centrifuged at 12,000 g for 10 min, and the supernatants were collected. Proteins were separated on 4-20% Novex Tris-Glycine polyacrylamide gels (Invitrogen) and subsequently transferred onto nitrocellulose membranes (Invitrogen, IB3010-01). […] Signal of each spot is obtained following chemiluminescent detection with SuperSignal® West Dura Extended Duration Substrate (Thermo Scientific, 34076) and spot density is quantified using a Biolmaging System Chemigenius2 (Syngene)."}},
  "data": [
    {"compound": "COc1c(C)c(C(=O)c2ccc(N)c(C(=O)[O-])c2)n2ccccc12.[Na+]", "note": "[SSR]", "values": [
      {"measurement": "inhibition of ^125I-FGF2 binding to FGFR1-ECD", "setting": "[1]", "result": "inhibited ^125I-FGF2 binding"},
      {"measurement": "tumbling speed (anisotropy) of FGF1-lumio/FGFR2^∂123 complex", "setting": "FGFR2^∂123", "result": "failed to alter the tumbling speed of the complex"},
      {"measurement": "FGF2-induced HUVEC proliferation", "setting": "HUVEC", "result": "able to inhibit FGF2-induced HUVEC proliferation"},
      {"measurement": "FGF7-induced PANC02 migration", "setting": "PANC02 cells", "result": "blocked"},
      {"measurement": "FGF-induced AKT phosphorylation", "setting": "[2]", "result": "inhibit"}
    ]}
  ]
}
